# Calls of active or inactive are those of the source. The rule behind the calls is not given here.
# Experiments:
# T-24 [1] = assay: Induction of cell cycle arrest in human T24 cells assessed as accumulation of cells at G2/M phase at 1 uM incubated for 24 hrs by propidium iodide/RNase A staining based flow cytometry analysis (reference value: 5.82 %); type: functional
# T-24 [2] = assay: Induction of cell cycle arrest in human T24 cells assessed as accumulation of cells at S phase at 0.5 uM incubated for 24 hrs by propidium iodide/RNase A staining based flow cytometry analysis (reference value: 42.47 %); type: functional
# T-24 [3] = assay: Induction of mitochondrial ROS generation in human T24 cells at 0.5 uM measured after 24 hrs by Mitotracker Red dye based confocal microscopy method; type: functional, cell-based
# T-24 [4] = assay: Induction of apoptosis in human T24 cells assessed as late apoptotic cells at 0.5 uM incubated for 24 hrs by Annexin-V/PI staining based flow cytometry analysis (reference value: 0.543 %); type: functional
# T-24 [5] = assay: Induction of apoptosis in human T24 cells assessed as contracted small fragmented nuclei at 0.5 uM by Hoechst33258 staining based fluorescence microscopy; type: functional, cell-based
# T-24 [6] = assay: Induction of mitochondrial membrane potential dysfunction in human T24 cells assessed as decrease in ATP production at 1 uM; type: functional; design: scale not given: the % may be the effect or the level left
# [7] = Toxicity in human WI-38 cells assessed as wound closure at 0.25 uM measured after 24 hrs by fluorescence microscopy based wound healing assay; type: cell-based; details: wi-38, 24 h
# T-24 [8] = assay: Induction of cell cycle arrest in human T24 cells assessed as accumulation of cells at G2/M phase at 0.5 uM incubated for 24 hrs by propidium iodide/RNase A staining based flow cytometry analysis (reference value: 5.82 %); type: functional
# T-24 [9] = assay: Induction of apoptosis in human T24 cells assessed as condensation of nuclei at 0.5 uM by Hoechst33258 staining based fluorescence microscopy; type: functional, cell-based
# T-24 [10] = assay: Inhibition of colony formation in human T24 cells upto 5 uM incubated for 24 hrs and measured for 10 days; type: functional; details: up to 5 µM
# T-24 [11] = assay: Inhibition of cell migration in human T24 cells assessed as recovery of wound area at 5 uM measured after 24 hrs by wound healing assay based fluorescence microscopy; type: functional; design: scale not given: the % may be the effect or the level left
# T-24 [12] = assay: Induction of cell cycle arrest in human T24 cells assessed as accumulation of cells at S phase at 10 uM incubated for 24 hrs by propidium iodide/RNase A staining based flow cytometry analysis (reference value: 42.47 %); type: functional
# T-24 [13] = assay: Induction of mitochondrial mediated apoptosis in human T24 cells assessed as increase in Bak protein expression at 10 to 15 uM incubated for 24 hrs by Western blotting analysis; type: functional, cell-based; details: dose 10-15 µM
# T-24 [14] = assay: Induction of cell cycle arrest in human T24 cells assessed as accumulation of cells at G1 phase at 10 uM incubated for 24 hrs by propidium iodide/RNase A staining based flow cytometry analysis (reference value: 51.71 %); type: functional
# T-24 [15] = assay: Induction of mitochondrial membrane potential dysfunction in human T24 cells assessed as change in morphology at 10 to 15 uM by Mitotracker green dye based fluorescence microscopy; type: functional, cell-based; details: dose 10-15 µM
# T-24 [16] = assay: Induction of apoptosis in human T24 cells assessed as early apoptotic cells at 10 uM incubated for 24 hrs by Annexin-V/PI staining based flow cytometry analysis (reference value: 3.27 %); type: functional
# T-24 [17] = assay: Induction of cell cycle arrest in human T24 cells assessed as accumulation of cells at G2/M phase at 10 uM incubated for 24 hrs by propidium iodide/RNase A staining based flow cytometry analysis (reference value: 5.82 %); type: functional
# T-24 [18] = assay: Induction of apoptosis in human T24 cells assessed as increase in caspase 3 activity at 2 uM (Rvb= 3.1%); type: functional
# T-24 [19] = assay: Induction of apoptosis in human T24 cells assessed as viable cells at 4 uM incubated for 24 hrs by Annexin-V/PI staining based flow cytometry analysis (reference value: 94.3 %); type: functional; details: read-out: Activity
# T-24 [20] = assay: Induction of ROS accumulation in human T24 cells assessed as increase in intracellular ROS level at 2 uM by […] based flow cytometry; type: functional, cell-based
# T-24 [21] = assay: Induction of Ca2+ production in human T24 cells assessed as increase in intracellular Ca2+ concentration at 2 uM by Fluo3-AM staining based fluorescence microscopic method; type: functional, cell-based
# T-24 [22] = assay: Induction of cell cycle arrest in human T24 cells assessed as accumulation of cells at S phase at 4 uM incubated for 24 hrs by propidium iodide/RNase A staining based flow cytometry analysis (reference value: 42.47 %); type: functional
# T-24 [23] = assay: Induction of mitochondrial mediated apoptosis in human T24 cells assessed as increase in Bak protein expression at 2 to 4 uM incubated for 24 hrs by Western blotting analysis; type: functional, cell-based; details: dose 2-4 µM
# T-24 [24] = assay: Induction of ROS generation in human T24 cells at 2 uM by fluorescence microscopy; type: functional, cell-based
# T-24 [25] = assay: Induction of apoptosis in human T24 cells assessed as necrotic cells at 6 uM incubated for 24 hrs by Annexin-V/PI staining based flow cytometry analysis (reference value: 1.92 %); type: functional
# T-24 [26] = assay: Induction of apoptosis in human T24 cells assessed as viable cells at 6 uM incubated for 24 hrs by Annexin-V/PI staining based flow cytometry analysis (reference value: 94.3 %); type: functional; details: read-out: Activity
# T-24 [27] = assay: Induction of mitochondrial mediated apoptosis in human T24 cells assessed as upregulation of cytochrome c expression at 2 to 4 uM incubated for 24 hrs by Western blotting analysis; type: functional, cell-based; details: dose 2-4 µM
# T-24 [28] = assay: Induction of apoptosis in human T24 cells assessed as condensation of nuclei at 2 uM by Hoechst33258 staining based fluorescence microscopy; type: functional, cell-based
smiles,measurement,setting,value
O=C1c2ccccc2-c2ccc([N+](=O)[O-])c3ccnc1c23,Activity,T-24 [1],61.26%
same,Activity,T-24 [2],47.37%
same,Activity,T-24 [3],Active
same,Activity,T-24 [4],5.1%
same,Activity,T-24 [5],Active
same,Activity,T-24 [6],47.3%
same,Activity,[7],Non-Toxic
same,Activity,T-24 [8],52.05%
same,Activity,T-24 [9],Active
O=C1c2ccccc2-c2cccc3ccnc1c23,inhibition (INH),T-24 [10],100%
same,Activity,T-24 [11],21.7%
same,Activity,T-24 [12],54.86%
same,Activity,T-24 [13],Active
same,Activity,T-24 [14],31.45%
same,Activity,T-24 [15],Active
same,Activity,T-24 [16],14.4%
same,Activity,T-24 [17],13.69%
O=C1c2cc([N+](=O)[O-])ccc2-c2ccc([N+](=O)[O-])c3ccnc1c23,Activity,T-24 [18],24.6%
same,viability at 4 µM,T-24 [19],59.4%
same,Activity,T-24 [20],Active
same,Activity,T-24 [21],Active
same,Activity,T-24 [22],70.53%
same,Activity,T-24 [23],Active
same,Activity,T-24 [24],Active
same,Activity,T-24 [25],3.14%
same,viability at 6 µM,T-24 [26],54.1%
same,Activity,T-24 [27],Active
same,Activity,T-24 [28],Active
